From publication PMC12663298, “Sibiriline, a novel dual inhibitor of necroptosis and ferroptosis, prevents RIPK1 kinase activity and (phospho)lipid peroxidation as a potential therapeutic strategy” (Cell Death Discovery, 2025)

Key:
Assay type in all cases: biochemical
[1] = target: KIT (Homo sapiens, UniProt P10721); assay: enzymatic kinase assay (Eurofins) at KM,ATP
[2] = target: JAK2 (Homo sapiens, UniProt O60674); assay: enzymatic kinase assay (Eurofins) at KM,ATP
[3] = target: T1, DRAK2 (Homo sapiens, UniProt O94768); assay: enzymatic kinase assay (Eurofins) at KM,ATP
T1 construct: gene STK17B
T1 sequence (O94768 1-372): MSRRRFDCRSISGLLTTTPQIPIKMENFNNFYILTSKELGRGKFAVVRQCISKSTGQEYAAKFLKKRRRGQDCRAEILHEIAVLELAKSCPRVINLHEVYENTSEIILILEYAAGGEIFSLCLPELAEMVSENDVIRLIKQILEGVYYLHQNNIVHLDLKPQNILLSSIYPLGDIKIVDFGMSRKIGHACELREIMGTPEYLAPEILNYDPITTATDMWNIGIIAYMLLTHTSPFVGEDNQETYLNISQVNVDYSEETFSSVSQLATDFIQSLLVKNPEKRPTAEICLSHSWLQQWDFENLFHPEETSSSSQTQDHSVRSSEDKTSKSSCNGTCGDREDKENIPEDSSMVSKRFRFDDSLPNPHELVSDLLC

[4] = target: T2, AURKC (Homo sapiens, UniProt Q9UQB9); assay: enzymatic kinase assay (Eurofins) at KM,ATP
T2 sequence (Q9UQB9 1-309): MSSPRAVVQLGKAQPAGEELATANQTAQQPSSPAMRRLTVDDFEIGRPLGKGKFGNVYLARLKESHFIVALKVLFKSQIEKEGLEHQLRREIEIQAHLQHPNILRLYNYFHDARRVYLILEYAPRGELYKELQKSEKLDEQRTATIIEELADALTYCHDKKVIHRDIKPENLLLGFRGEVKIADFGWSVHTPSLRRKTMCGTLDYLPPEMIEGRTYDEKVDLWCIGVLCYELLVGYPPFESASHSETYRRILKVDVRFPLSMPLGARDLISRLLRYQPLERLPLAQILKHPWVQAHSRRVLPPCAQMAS

[5] = target: T3, PDGFR-β (Homo sapiens, UniProt P09619); assay: enzymatic kinase assay (Eurofins) at KM,ATP
T3 construct: gene PDGFRB

[6] = target: ABL1 (Homo sapiens, UniProt P00519); assay: ADP-Glo kinase assay at KM,ATP
ABL1, sequence (P00519 whole entry): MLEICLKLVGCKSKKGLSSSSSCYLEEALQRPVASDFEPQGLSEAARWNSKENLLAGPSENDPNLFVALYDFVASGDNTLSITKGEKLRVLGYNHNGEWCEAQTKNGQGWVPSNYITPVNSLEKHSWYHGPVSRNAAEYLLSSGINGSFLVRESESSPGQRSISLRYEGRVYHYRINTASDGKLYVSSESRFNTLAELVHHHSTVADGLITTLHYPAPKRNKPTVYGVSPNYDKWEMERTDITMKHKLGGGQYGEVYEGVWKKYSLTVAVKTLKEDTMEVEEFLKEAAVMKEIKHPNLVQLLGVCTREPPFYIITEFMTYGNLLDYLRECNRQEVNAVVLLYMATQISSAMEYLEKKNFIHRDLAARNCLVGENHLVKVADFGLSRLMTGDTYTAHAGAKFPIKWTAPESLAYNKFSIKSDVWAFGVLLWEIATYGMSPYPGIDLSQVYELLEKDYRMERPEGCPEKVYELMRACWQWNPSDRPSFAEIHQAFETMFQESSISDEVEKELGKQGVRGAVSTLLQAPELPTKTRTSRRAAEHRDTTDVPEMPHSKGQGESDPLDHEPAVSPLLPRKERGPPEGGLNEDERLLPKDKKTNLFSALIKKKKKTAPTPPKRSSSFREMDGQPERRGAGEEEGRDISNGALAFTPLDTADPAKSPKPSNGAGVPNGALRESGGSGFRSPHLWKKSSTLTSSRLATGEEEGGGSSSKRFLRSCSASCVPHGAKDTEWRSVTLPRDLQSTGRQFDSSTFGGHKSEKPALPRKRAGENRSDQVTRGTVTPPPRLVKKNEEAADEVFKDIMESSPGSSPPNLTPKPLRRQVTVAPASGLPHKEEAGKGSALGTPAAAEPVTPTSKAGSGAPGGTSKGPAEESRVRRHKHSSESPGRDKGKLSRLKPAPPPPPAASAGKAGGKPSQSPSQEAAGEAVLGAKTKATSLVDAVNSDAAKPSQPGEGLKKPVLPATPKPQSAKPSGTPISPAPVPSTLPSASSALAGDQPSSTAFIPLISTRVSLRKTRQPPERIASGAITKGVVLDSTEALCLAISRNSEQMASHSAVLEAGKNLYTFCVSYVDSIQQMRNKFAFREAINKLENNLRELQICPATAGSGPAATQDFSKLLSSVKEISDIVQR

KIT, sequence (P10721 26-976): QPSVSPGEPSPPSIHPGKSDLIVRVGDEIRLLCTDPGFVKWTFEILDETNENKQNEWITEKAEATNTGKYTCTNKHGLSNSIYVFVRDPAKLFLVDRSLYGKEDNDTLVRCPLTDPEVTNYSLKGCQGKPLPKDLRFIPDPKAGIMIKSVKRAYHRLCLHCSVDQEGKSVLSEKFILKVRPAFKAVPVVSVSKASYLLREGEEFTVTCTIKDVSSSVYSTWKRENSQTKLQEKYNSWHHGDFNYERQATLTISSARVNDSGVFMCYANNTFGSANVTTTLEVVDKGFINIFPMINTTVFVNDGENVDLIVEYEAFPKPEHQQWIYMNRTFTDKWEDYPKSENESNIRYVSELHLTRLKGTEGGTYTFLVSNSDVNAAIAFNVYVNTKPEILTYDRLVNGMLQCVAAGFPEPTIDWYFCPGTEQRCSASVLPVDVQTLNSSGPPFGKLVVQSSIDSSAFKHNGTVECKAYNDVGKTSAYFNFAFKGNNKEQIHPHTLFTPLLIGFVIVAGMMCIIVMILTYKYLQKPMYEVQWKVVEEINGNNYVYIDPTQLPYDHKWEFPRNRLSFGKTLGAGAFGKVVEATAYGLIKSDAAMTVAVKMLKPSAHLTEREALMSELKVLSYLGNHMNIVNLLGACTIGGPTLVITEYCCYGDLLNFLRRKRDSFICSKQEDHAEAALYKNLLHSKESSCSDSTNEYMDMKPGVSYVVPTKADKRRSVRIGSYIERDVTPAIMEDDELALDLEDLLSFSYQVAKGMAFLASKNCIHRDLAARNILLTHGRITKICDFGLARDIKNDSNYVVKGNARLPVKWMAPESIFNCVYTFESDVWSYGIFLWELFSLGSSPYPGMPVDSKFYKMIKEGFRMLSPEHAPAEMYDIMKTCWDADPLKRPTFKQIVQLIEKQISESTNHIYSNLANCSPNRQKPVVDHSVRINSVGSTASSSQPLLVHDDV
JAK2, sequence (O60674 whole entry): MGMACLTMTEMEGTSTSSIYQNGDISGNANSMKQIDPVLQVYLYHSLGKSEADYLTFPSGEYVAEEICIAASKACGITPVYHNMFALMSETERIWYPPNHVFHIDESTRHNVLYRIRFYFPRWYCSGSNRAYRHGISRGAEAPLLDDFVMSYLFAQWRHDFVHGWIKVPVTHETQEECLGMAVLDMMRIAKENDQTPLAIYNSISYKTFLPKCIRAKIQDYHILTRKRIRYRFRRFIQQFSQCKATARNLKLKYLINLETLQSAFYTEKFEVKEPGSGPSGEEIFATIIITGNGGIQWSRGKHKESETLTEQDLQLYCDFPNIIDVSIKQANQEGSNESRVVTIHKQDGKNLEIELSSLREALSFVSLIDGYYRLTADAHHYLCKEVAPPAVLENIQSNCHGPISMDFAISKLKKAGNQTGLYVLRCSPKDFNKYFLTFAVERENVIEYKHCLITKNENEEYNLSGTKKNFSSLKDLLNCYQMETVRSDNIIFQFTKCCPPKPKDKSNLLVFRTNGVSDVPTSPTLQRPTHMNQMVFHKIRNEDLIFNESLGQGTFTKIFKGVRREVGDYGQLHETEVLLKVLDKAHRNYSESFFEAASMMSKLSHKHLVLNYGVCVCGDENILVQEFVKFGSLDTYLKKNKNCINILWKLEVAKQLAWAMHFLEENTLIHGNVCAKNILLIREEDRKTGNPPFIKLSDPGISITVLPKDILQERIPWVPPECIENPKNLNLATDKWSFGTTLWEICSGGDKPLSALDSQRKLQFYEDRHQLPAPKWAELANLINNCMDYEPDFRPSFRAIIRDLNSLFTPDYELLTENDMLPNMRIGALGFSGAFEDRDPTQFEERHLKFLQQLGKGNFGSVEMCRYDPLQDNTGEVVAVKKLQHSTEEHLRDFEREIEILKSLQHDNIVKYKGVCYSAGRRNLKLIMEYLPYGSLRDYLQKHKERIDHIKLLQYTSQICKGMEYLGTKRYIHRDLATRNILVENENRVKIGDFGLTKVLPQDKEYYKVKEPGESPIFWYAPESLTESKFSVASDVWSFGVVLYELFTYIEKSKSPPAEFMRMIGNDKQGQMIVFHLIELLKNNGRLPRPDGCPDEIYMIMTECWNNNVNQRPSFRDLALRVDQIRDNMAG
T3 sequence (P09619 33-1106): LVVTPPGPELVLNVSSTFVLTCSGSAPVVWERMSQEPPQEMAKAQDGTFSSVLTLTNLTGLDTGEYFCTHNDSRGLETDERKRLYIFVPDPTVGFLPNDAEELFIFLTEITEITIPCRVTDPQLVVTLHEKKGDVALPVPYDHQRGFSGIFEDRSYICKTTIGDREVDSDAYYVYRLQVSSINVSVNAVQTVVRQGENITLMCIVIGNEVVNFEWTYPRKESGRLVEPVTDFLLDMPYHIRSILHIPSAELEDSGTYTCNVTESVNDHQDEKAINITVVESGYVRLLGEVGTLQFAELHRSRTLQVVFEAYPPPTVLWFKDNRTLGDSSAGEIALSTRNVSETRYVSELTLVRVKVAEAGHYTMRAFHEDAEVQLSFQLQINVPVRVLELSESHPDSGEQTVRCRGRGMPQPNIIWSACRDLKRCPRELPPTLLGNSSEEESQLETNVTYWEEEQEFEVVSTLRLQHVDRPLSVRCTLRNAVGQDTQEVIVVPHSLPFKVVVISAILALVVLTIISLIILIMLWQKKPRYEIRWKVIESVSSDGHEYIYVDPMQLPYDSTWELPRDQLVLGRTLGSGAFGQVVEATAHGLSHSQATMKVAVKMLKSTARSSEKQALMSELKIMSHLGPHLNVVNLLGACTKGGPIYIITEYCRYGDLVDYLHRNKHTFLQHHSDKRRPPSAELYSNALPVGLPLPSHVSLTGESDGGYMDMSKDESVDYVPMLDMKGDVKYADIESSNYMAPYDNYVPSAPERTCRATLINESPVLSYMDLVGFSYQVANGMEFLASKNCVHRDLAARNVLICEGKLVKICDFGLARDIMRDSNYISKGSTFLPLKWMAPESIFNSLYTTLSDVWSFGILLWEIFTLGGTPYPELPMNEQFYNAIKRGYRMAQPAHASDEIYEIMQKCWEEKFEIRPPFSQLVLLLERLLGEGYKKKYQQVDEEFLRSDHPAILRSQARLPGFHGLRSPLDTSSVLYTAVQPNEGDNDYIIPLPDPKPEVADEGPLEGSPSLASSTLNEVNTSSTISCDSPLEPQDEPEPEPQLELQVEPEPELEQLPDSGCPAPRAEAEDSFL

## Oc1ccc(-c2cc3cccnc3[nH]2)cc1 [compound 1, 4-(1H-pyrrolo[2,3-b]pyridin-2-yl)phenol]
[1]
  IC50: All kinases tested showed inhibition in the µM range.
[2]
  IC50: All kinases tested showed inhibition in the µM range.
[3]
  IC50: All kinases tested showed inhibition in the µM range.
[4]
  IC50: All kinases tested showed inhibition in the µM range.
[5]
  IC50: All kinases tested showed inhibition in the µM range.
[6]
  IC50: All kinases tested showed inhibition in the µM range.
